How the values were obtained:
[1] = test system: B16F10 melanoma tumor; assay: Antitumor activity of rIL-15 conjugates in B16F10 melanoma tumor (Example 9); assay type: in vivo, C57BL/6 mice; conditions: conjugates 0.6 mg/kg i.v. once, IL-15 0.3 mg/kg i.p. every other day x6
Procedure: To test and compare the efficacy of rIL-15 conjugates in an in vivo model, syngenic tumors were induced in 6-8 week old female C57BL/6 mice by subcutaneously injecting, into post ventral abdominal region, mouse metastatic B16F10 melanoma cells at a density of 1×10^6 cells mL-1 in 100 μL volume of non-serum containing cell culture medium. The mice developed tumors of approximately 100 mm^3 by the end of 6-8 days. The mice were divided into six groups, each group consisting of 10 animals.
Groups A through D correspond to rIL-15 conjugates that were administered at 0.6 mg/kg body weight by intravenous injection to the mice only once while Group E represents unconjugated IL-15 administered every other day via intraperitoneal injection. Group F represents a vehicle control, wherein phosphate buffered saline was administered by intravenous injection.
Following dose administration, the mice were measured for changes in body weight and for the growth of subcutaneous metastatic melanoma tumors by digital calipers three times a week. Daily clinical signs were also monitored. The study end point was reached when the mean volume of the tumors reach 1500 mm^3 (i.e., a mean tumor volume of 1500 mm^3).

[2] = test system: STAT5 phosphorylation in CTLL-2 cells; assay: Measurement of IL-15 activity of rIL-15 based on STAT5 phosphorylation in CTLL-2 cells (Example 1); assay type: cell-based
Text: For any given peptide, protein moiety or conjugate, it is possible to determine whether that peptide, protein moiety or conjugate has IL-15 activity. Various methods for determining in vitro IL-15 activity are described in the art. An exemplary approach is based on a pSTAT assay. Briefly, if an IL-15-dependent CTLL-2 cell is exposed to a test article having IL-15 activity, initiation of a signaling cascade results that includes the phosphorylation of STAT5 at tyrosine residue 694 (Tyr694) that can be quantitatively measured.
One day prior to assay, CTLL-2 cells were split into fresh growth medium (RPMI 1640+10% FBS+10% T-STIM+2 mM L-glut+1 mM Na-pyruvate). On the day of assay, cells were pre-incubated in assay medium (RPMI 1640+1% FBS+2 mM L-glut+1 mM Na-pyruvate) for at least 4 hours and then placed in a 96-well plate at 50,000 cells/well in the assay medium.
Dilutions of the test article were prepared in an appropriate buffer immediately prior to assay and each dilution of test article was incubated in a separate well of the CTLL-2 cells. The phosphorylation of STAT5 was then determined using the MSD Phospho (Tyr694)/Total STATa,b Whole Cell Lysate Kit (catalog #K15163D, […], LLC, Gaithersburg, Md.).

[3] = test system: IL-15Rα; assay: Receptor affinities for IL-15Rα by Surface Plasmon Resonance (Example 10); assay type: binding; conditions: SPR
Procedure: The affinities of IL-15 and rIL-15 conjugates were measured using Surface Plasmon Resonance (“SPR”). Briefly, the surface of a Biacore CMS sensor chip was activated using a 1:1 mixture of NHS:EDC to generate active NHS esters. Goat anti-human Fc antibody was covalently attached to the surface by injecting it for five minutes in 10 mM sodium acetate (pH 4). There were approximately 8000 RU of antibodies bound to the surface. Any remaining NHS ester was then quenched with ethanolamine
At the initiation of each injection cycle, IL-15-Rα-Fc was captured on a sensor chip channel by a five minute injection step in PBSP. Typically, 150-200 RU of receptors were bound on the surface.
rIL-15 conjugates were diluted to 10 μM in PBS (containing 0.05% Tween 20 and 0.1 mg/ml BSA). A series of 3-fold dilutions were made and injected onto a sensor chip which was coated with IL-15Rα. The affinities were measured by determining the ka and kd rates separately, and the ratio between kd and ka was used to calculate the Kd values.

[4] = test system: STAT5 phosphorylation in CTLL-2 cells; assay: Measurement of IL-15 activity of rIL-15 conjugates based on STAT5 phosphorylation in CTLL-2 cells (Example 8); assay type: cell-based; conditions: 10 minute treatment
Procedure: One day prior to the assay, CTLL-2 cells were split into fresh growth medium [RPMI 1640 supplemented with 10% FBS, 10% T-cell culture supplement (catalog #354115, Corning, Inc., Tewksbury, Mass.), 2 mM L-glutamate, and 1 mM sodium pyruvate]. On the day of assay, cells were pre-incubated in assay medium (RPMI 1640 supplemented with 1% FBS, 2 mM L-glutamate, and 1 mM sodium pyruvate) for at least four hours, and then plated in assay medium in a 96-well plate at 50,000 cells/well. Dilutions of the test article were prepared in an appropriate buffer immediately prior to assay. Stimulation of CTLL-2 cells was initiated by the transfer of 25× test article solutions to triplicate wells containing CTLL-2 cells. Plates were incubated at 37° C., 5% CO2 for 10 minutes, and the reaction was stopped by cell lysis. Detection of phospho-STAT5 and total STAT5 protein levels in cell lysates was performed using the MSD Phospho (Tyr694)/Total STATa,b Whole Cell Lysate Kit (catalog #K15163D, Meso Scale Diagnostics, LLC, Gaithersburg, Md.). […] Conjugates prepared in accordance with Examples 2, 3 and 5 were tested, with the results following a 10 minute treatment provided in Table 4.

[5] = target: IL-15-Rα-Fc; assay: SPR (Biacore), IL-15Rα-Fc captured by anti-human Fc antibody, Kd from kd/ka
[6] = target: IL-15-Rα-Fc; assay: SPR (Biacore), IL-15Rα-Fc captured by anti-human Fc antibody, test article injected
[7] = days from the day of implantation
[8] = IL-15-Rα-Fc captured on sensor chip

| Substance | Kd [5] | koff [6] | kon [6] | also measured |
| --- | --- | --- | --- | --- |
| IL-15: recombinant human IL-15 obtained from PeproTech (catalog #200-15); unconjugated control |  |  |  | Tumor Volume Doubling Time (500 mm^3) [1]: 2.9 days; Tumor Volume Doubling Time (1000 mm^3) [1]: 5.6 days; Time to reach 250 mm^3 [1, 7]: 10.6 days; Time to reach 500 mm^3 [1, 7]: 13.5 days; Time to reach 1000 mm^3 [1, 7]: 19.1 days; Tumor growth delay for 250 mm^3 ([1]; versus vehicle control Group F): 0.6 days; Tumor growth delay for 500 mm^3 ([1]; versus vehicle control Group F): 0.9 days; Tumor growth delay for 1000 mm^3 ([1]; versus vehicle control Group F): 4 days; average pSTAT5 EC50 ([2]; at 5 minutes, average over two runs): 0.2071 ng/mL; pSTAT5 EC50 ([2]; at 10 minutes): 0.08187 ng/mL; ka [3, 8]: 7.5e+06 M⁻¹ s⁻¹; kd [3, 8]: 0.00028 s⁻¹; Kd ([3]; read-out: affinity (Kd)): 0.0038 nM; EC50 (ng/mL) Ave ± SD [4]: 0.063 ± 0.028 ng/mL |
| Fraction containing mono-PEG-rIL-15 from Example 5 ([mPEG2-ru-40K]-[rIL-15] conjugates) (from UniProt P40933 49-162) (ligand) | 3.56 nM | 0.00047 s⁻¹ | 130000 M⁻¹ s⁻¹ |  |
| Fraction containing tri-PEG-rIL-15 from Example 5 ([mPEG2-ru-40K]-[rIL-15] conjugates) (from UniProt P40933 49-162) (ligand) | 9.4 nM | 0.0039 s⁻¹ | 420000 M⁻¹ s⁻¹ |  |
| Fraction containing di- and tri-PEG-rIL-15 from Example 5 ([mPEG2-ru-40K]-[rIL-15] conjugates) (from UniProt P40933 49-162) (ligand) | 1.9 nM | 0.00088 s⁻¹ | 460000 M⁻¹ s⁻¹ |  |
| Fraction containing di- and tri-PEG-rIL-15 from Example 2 ([mPEG2-ru-20K]-[rIL-15] conjugates) (from UniProt P40933 49-162) (ligand) | 0.183 nM | 0.00049 s⁻¹ | 2.6e+06 M⁻¹ s⁻¹ |  |

More lines, main results first:

| Kd [5] | koff [6] | kon [6] | Substance | also measured |
| --- | --- | --- | --- | --- |
| 0.043 nM |  |  | Fraction containing mono-PEG-rIL-15 from Example 2 ([mPEG2-ru-20K]-[rIL-15] conjugates) (from UniProt P40933 49-162) (ligand) |  |
| 0.0038 nM |  |  | recombinant IL-15 (unconjugated) (from UniProt P40933 49-162) (ligand) |  |
